Results: paper PMC7093416, “Selective USP7 inhibition elicits cancer cell killing through a p53-dependent mechanism” (Scientific Reports, 2020)

Tested on: panel of 484 cancer cell lines
Experiment: PRISM cancer cell line profiling, 5 days
Format: cell-based
Set-up: AUC: unit not given beside the values
Experimental: Cancer cell line profiling was performed using the Broad’s PRISM platform. Cell treatment and data analysis were performed as described in Yu et al[42]. Raw Luminex signal was converted to AUC values for each cell line as described. The resulting AUC profile for each compound was modeled against DepMap using the limma package in R[71]. Because hotspot mutation analysis was performed against DepMap, TP53 annotations in Fig. 6c,d are directly from DepMap.

SMILES: CN1CCN(CCC(=O)Nc2ccc3c(=O)n(CC4(O)CCN(C(=O)[C@@H](CCCNC(=O)c5ccc6c(Cl)c7c(nc6c5)CCCC7)Cc5ccccc5)CC4)cnc3c2)CC1 [XL177A]
- AUC (RVH421_SKIN): 0.7933
- AUC (S117_SOFT_TISSUE): 0.8952
- AUC (SBC5_LUNG): 1.121
- AUC (SCABER_URINARY_TRACT): 0.8461
- AUC (SCC25_UPPER_AERODIGESTIVE_TRACT): 0.7649
- AUC (SF126_CENTRAL_NERVOUS_SYSTEM): 1.059
- AUC (SF295_CENTRAL_NERVOUS_SYSTEM): 1.367
- AUC (SF539_CENTRAL_NERVOUS_SYSTEM): 0.7901
- AUC (SH4_SKIN): 0.8355
- AUC (SH10TC_STOMACH): 0.9409
- AUC (SIMA_AUTONOMIC_GANGLIA): 1.153
- AUC (SJSA1_BONE): 0.9454
- AUC (SKES1_BONE): 1.123
- AUC (SKHEP1_LIVER): 1.003
- AUC (SKLU1_LUNG): 1.145
- AUC (SKMEL2_SKIN): 1.16
- AUC (SKMEL3_SKIN): 1.119
- AUC (SKMEL5_SKIN): 1.147
- AUC (SKMEL24_SKIN): 1.297
- AUC (SKMEL30_SKIN): 0.992
- AUC (SKMES1_LUNG): 0.9519
- AUC (SKNAS_AUTONOMIC_GANGLIA): 1.0969
- AUC (SKNBE2_AUTONOMIC_GANGLIA): 1.099
- AUC (SKOV3_OVARY): 0.9025
- AUC (SKUT1_SOFT_TISSUE): 1.15
- AUC (SNB75_CENTRAL_NERVOUS_SYSTEM): 0.9344
- AUC (SNGM_ENDOMETRIUM): 1.144
- AUC (SNU46_UPPER_AERODIGESTIVE_TRACT): 1.075
- AUC (SNU61_LARGE_INTESTINE): 1.293
- AUC (SNU81_LARGE_INTESTINE): 1.343
- AUC (SNU213_PANCREAS): 0.7501
- AUC (SNU245_BILIARY_TRACT): 1.4902
- AUC (SNU308_BILIARY_TRACT): 1.159
- AUC (SNU398_LIVER): 0.9557
- AUC (SNU407_LARGE_INTESTINE): 0.9921
- AUC (SNU410_PANCREAS): 1.104
- AUC (SNU423_LIVER): 0.9049
- AUC (SNU449_LIVER): 1.072
- AUC (SNU466_CENTRAL_NERVOUS_SYSTEM): 0.6104
- AUC (SNU601_STOMACH): 1.062
- AUC (SNU668_STOMACH): 0.8134
- AUC (SNU685_ENDOMETRIUM): 0.8198
- AUC (SNU719_STOMACH): 0.6005
- AUC (SNU738_CENTRAL_NERVOUS_SYSTEM): 0.9451
- AUC (SNU761_LIVER): 1.358
- AUC (SNU840_OVARY): 0.9553
- AUC (SNU869_BILIARY_TRACT): 1.237
- AUC (SNU886_LIVER): 1.085
- AUC (SNU1041_UPPER_AERODIGESTIVE_TRACT): 1.036
- AUC (SNU1066_UPPER_AERODIGESTIVE_TRACT): 1.434
- AUC (SNU1076_UPPER_AERODIGESTIVE_TRACT): 1.032
- AUC (SNU1077_ENDOMETRIUM): 1.075
- AUC (SNU1079_BILIARY_TRACT): 1.101
- AUC (SNU1105_CENTRAL_NERVOUS_SYSTEM): 1.015
- AUC (SNU1196_BILIARY_TRACT): 1.095
- AUC (SNU1214_UPPER_AERODIGESTIVE_TRACT): 0.7181
- AUC (SNUC2A_LARGE_INTESTINE): 1.088
- AUC (SNUC4_LARGE_INTESTINE): 1.036
- AUC (SNUC5_LARGE_INTESTINE): 1.147
- AUC (SQ1_LUNG): 0.9875
- AUC (SUIT2_PANCREAS): 0.9816
- AUC (SW480_LARGE_INTESTINE): 1.095
- AUC (SW579_THYROID): 0.8837
- AUC (SW620_LARGE_INTESTINE): 1.161
- AUC (SW780_URINARY_TRACT): 0.8743
- AUC (SW837_LARGE_INTESTINE): 1.139
- AUC (SW900_LUNG): 1.083
- AUC (SW948_LARGE_INTESTINE): 1.148
- AUC (SW1088_CENTRAL_NERVOUS_SYSTEM): 1.163
- AUC (SW1271_LUNG): 1.0015
- AUC (SW1353_BONE): 0.7826
- AUC (SW1573_LUNG): 1.097
- AUC (SW1710_URINARY_TRACT): 0.9553
- AUC (SW1990_PANCREAS): 0.9791
- AUC (T3M10_LUNG): 1.003
- AUC (T24_URINARY_TRACT): 1.033
- AUC (T47D_BREAST): 1.05
- AUC (T98G_CENTRAL_NERVOUS_SYSTEM): 0.9138
- AUC (TCCPAN2_PANCREAS): 1.167
- AUC (TCCSUP_URINARY_TRACT): 1.301
- AUC (TE1_OESOPHAGUS): 1.2696
- AUC (TE4_OESOPHAGUS): 1.044
- AUC (TE5_OESOPHAGUS): 0.9519
- AUC (TE6_OESOPHAGUS): 0.8165
- AUC (TE8_OESOPHAGUS): 1.003
- AUC (TE9_OESOPHAGUS): 1.141
- AUC (TE10_OESOPHAGUS): 0.9335
- AUC (TE11_OESOPHAGUS): 1.05
- AUC (TEN_ENDOMETRIUM): 0.8216
- AUC (TM31_CENTRAL_NERVOUS_SYSTEM): 1.2102
- AUC (TM87_SOFT_TISSUE): 1.188
- AUC (TOV21G_OVARY): 0.5189
- AUC (TOV112D_OVARY): 1.085
- mean diff. between TP53 functional WT and functional mutant populations (AUC) (TP53 annotation by functional scores of Giacomelli et al.): 0.072 ± 0.016
- AUC (TT2609C02_THYROID): 0.9464
- AUC (TT_OESOPHAGUS): 1.06
- AUC (TT_THYROID): 0.8609
- AUC (TUHR4TKB_KIDNEY): 1.102
- AUC (U2OS_BONE): 1.296
- AUC (U118MG_CENTRAL_NERVOUS_SYSTEM): 1.069
- AUC (U251MG_CENTRAL_NERVOUS_SYSTEM): 0.9403
- AUC (UACC62_SKIN): 0.9957
- AUC (UACC257_SKIN): 0.801
- AUC (UBLC1_URINARY_TRACT): 0.854
- AUC (UMUC1_URINARY_TRACT): 0.8933
- AUC (UO31_KIDNEY): 1.106
- AUC (VMCUB1_URINARY_TRACT): 0.9786
- AUC (VMRCRCW_KIDNEY): 1.013
- AUC (VMRCRCZ_KIDNEY): 1.099
- AUC (WM88_SKIN): 1.176
- AUC (WM793_SKIN): 1.125
- AUC (WM983B_SKIN): 1.093
- AUC (WM1799_SKIN): 0.5219
- AUC (WM2664_SKIN): 0.9262
- AUC (YAPC_PANCREAS): 1.218
- AUC (YD8_UPPER_AERODIGESTIVE_TRACT): 0.881
- AUC (YD10B_UPPER_AERODIGESTIVE_TRACT): 0.9499
- AUC (YD15_SALIVARY_GLAND): 0.7713
- AUC (YD38_UPPER_AERODIGESTIVE_TRACT): 0.8781
- AUC (YH13_CENTRAL_NERVOUS_SYSTEM): 0.9484
- AUC (YKG1_CENTRAL_NERVOUS_SYSTEM): 0.9563
- AUC (ZR751_BREAST): 0.7595
